In ChEMBL document CHEMBL5131475, “Metallo-β-lactamases inhibitor fisetin attenuates meropenem resistance in NDM-1-producing Escherichia coli” (Eur J Med Chem, 2022):
In brackets after ≈: the same amount, converted by molar mass. Activity calls are given as the source filed them. No cut-off for these calls is given here.

Assays:
Escherichia coli [1] = assay: Antibacterial activity against pET28a-NDM-1 positive Escherichia coli BL21(DE3) isolates assessed as lincomycin MIC incubated for 18 to 24 hrs by CLSI based broth microdilution method; assay type: functional; details: time 18-24 hrs
Escherichia coli [2] = assay: Antibacterial activity against pET28a-NDM-1 positive Escherichia coli BL21(DE3) isolates assessed as meropenem MIC incubated for 18 to 24 hrs by CLSI based broth microdilution method; assay type: functional; details: time 18-24 hrs
Bacteria [3] = assay: Binding affinity to NDM-1 (unknown origin) assessed as binding free energy by fluorescence quenching method
Escherichia coli [4] = assay: Synergistic antibacterial activity against pET28a NDM-1 positive Escherichia coli BL21(DE3) isolates assessed as fractional Inhibitory concentration index incubated for 18 to 24 hrs in presence of meropenem by CLSI based broth microdilution method; assay type: functional; details: time 18-24 hrs
Bacteria [5] = assay: Binding affinity to NDM-1 V73A mutant (unknown origin) assessed as binding free energy by fluorescence quenching method
Escherichia coli [6] = assay: Synergistic antibacterial activity against pET28a NDM-1 positive Escherichia coli BL21(DE3) isolates assessed as fractional Inhibitory concentration index incubated for 18 to 24 hrs in presence of florfenicol by CLSI based broth microdilution method; assay type: functional; details: time 18-24 hrs
Bacteria [7] = assay: Inhibition of NDM-1 activity (unknown origin) in presence of zinc ion
Escherichia coli [8] = assay: Synergistic antibacterial activity against NDM-1 positive Escherichia coli ZC-YN3 isolates assessed as fractional Inhibitory concentration index incubated for 18 to 24 hrs in presence of imipenem by CLSI based broth microdilution method; assay type: functional; details: time 18-24 hrs
Escherichia coli [9] = assay: Antibacterial activity against NDM-1 positive Escherichia coli ZC-YN3 isolates assessed as spectinomycin MIC incubated for 18 to 24 hrs by CLSI based broth microdilution method; assay type: functional; details: time 18-24 hrs
Escherichia coli [10] = assay: Synergistic antibacterial activity against pET28a NDM-1 positive Escherichia coli BL21(DE3) isolates assessed as fractional Inhibitory concentration index incubated for 18 to 24 hrs in presence of tetracycline by CLSI based broth microdilution method; assay type: functional; details: time 18-24 hrs
Escherichia coli [11] = assay: Antibacterial activity against pET28a-NDM-1 positive Escherichia coli BL21(DE3) isolates assessed as vancomycin MIC incubated for 18 to 24 hrs by CLSI based broth microdilution method; assay type: functional; details: time 18-24 hrs
Escherichia coli [12] = assay: Antibacterial activity against pET28a-NDM-1 positive Escherichia coli BL21(DE3) isolates assessed as doxycycline MIC incubated for 18 to 24 hrs by CLSI based broth microdilution method; assay type: functional; details: time 18-24 hrs
Escherichia coli [13] = assay: Antibacterial activity against pET28a-NDM-1 positive Escherichia coli BL21(DE3) isolates assessed as ciprofloxacin MIC incubated for 18 to 24 hrs by CLSI based broth microdilution method; assay type: functional; details: time 18-24 hrs
Escherichia coli [14] = assay: Synergistic antibacterial activity against pET28a NDM-1 positive Escherichia coli BL21(DE3) isolates assessed as fractional Inhibitory concentration index incubated for 18 to 24 hrs in presence of kanamycin by CLSI based broth microdilution method; assay type: functional; details: time 18-24 hrs
[15] = Inhibition of metallo-beta-lactamase NDM-9 (unknown origin) using nitrocefin as substrate preincubated for 15 min followed by substrate addition and measured after 15 min by microplate reader assay; design: species or system Bacteria
Escherichia coli [16] = assay: Antibacterial activity against NDM-1 positive Escherichia coli ZC-YN3 isolates assessed as cefotaxime MIC incubated for 18 to 24 hrs by CLSI based broth microdilution method; assay type: functional; details: time 18-24 hrs

O=c1c(O)c(-c2ccc(O)c(O)c2)oc2cc(O)ccc12 [FISETIN]
MIC (Escherichia coli [1]): 853 µg/mL
MIC (Escherichia coli [2]): 4.67 µg/mL
Activity (Bacteria [3]): -25 kcal/mol
fractional inhibitory concentration index (FICI) (Escherichia coli [4]): 0.25
Activity (Bacteria [5]): -18.7 kcal/mol
fractional inhibitory concentration index (FICI) (Escherichia coli [6]): 0.79
inhibition (Bacteria [7]): Active
fractional inhibitory concentration index (FICI) (Escherichia coli [8]): 0.38
MIC (Escherichia coli [9]): 853 µg/mL
fractional inhibitory concentration index (FICI) (Escherichia coli [10]): 0.96
MIC (Escherichia coli [11]): 683 µg/mL
MIC (Escherichia coli [12]): 107 µg/mL
MIC (Escherichia coli [13]): 341 µg/mL
fractional inhibitory concentration index (FICI) (Escherichia coli [14]): 1.13
IC50 [15]: 25.98 µg/mL (≈ 90.8 µM)
MIC (Escherichia coli [16]): 512 µg/mL
